# Assay results from patent US10894036B2, “Use of marizomib for the treatment of central nervous system (CNS) cancers” (Celgene International II Sàrl, priority 2016, dated 2021).
# Entries after “also recorded” stand apart in the source; their conditions may differ. Like-named read-outs stand apart in the source and are kept apart here.
# Experiments:
# [1] = tested on: CNS-MM; assay: Compassionate use of marizomib in CNS-myeloma patients: response (IMWG, CSF, MRI, neurological); format: in vivo, human
# Method: This example sets forth seven case studies in which CNS-MM (i.e., multiple myeloma with CNS involvement) was treated using marizomib alone or in combination with other agents.
# Daratumumab (16 mg/kg weekly×2 months) was added with continued marizomib.
# Marizomib was given on compassionate use protocol (see above) at 0.7 mg/m^2 as a 10 min IV infusion on days 1, 8 and 15 along with dexamethasone on a 28 day Cycle.
# In July 2016, marizomib was given on compassionate use protocol at 0.8 mg/m^2 as a 10 min IV infusion on days 1, 8 and 15 along with dexamethasone on a 28 day Cycle. Pomalidomide was also given at 4 mg daily on days 1 through days 21.
# In August 2016, marizomib was given on compassionate use protocol at 0.7 mg/m^2 as a 10 min IV infusion on days 1, 8 and 15 along with dexamethasone on a 28 day Cycle. Pomalidomide was dosed at 4 mg daily on days 1 through days 21.
# The patient was treated with marizomib, oral pomalidomide, and oral dexamethasone.
# All patients had systemic disease with CNS involvement.
# [2] = Phase 1b MRZ + TMZ (+RT) in newly diagnosed G4 MG: adverse events, DLT; format: in vivo, human
# Method: This is a Phase 1b, open-label, 3+3, dose-escalation followed by dose-expansion study in patients with newly diagnosed G4 MG who have not previously received any local or systemic therapy for their G4 MG. The study will examine the effect of the addition of MRZ to standard of care treatment utilizing two study arms: Concomitant Treatment in which MRZ will be combined with TMZ+RT and Adjuvant Treatment in which MRZ will be combined with TMZ. The study will be conducted in two Stages. In Stage 1 (Dose-Escalation): 3 to 6 evaluable patients per MRZ dose cohort will be enrolled in each study arm. […] A total of approximately 48 patients will be enrolled in Stages 1 and 2 combined. Patients may not be enrolled in more than 1 MRZ dose cohort per arm.
# Concomitant Treatment consists of a 6 week (42 day) treatment period, followed by a 4 (−1) week break from treatments. All patients will receive intravenous (IV) MRZ infusion on Days 1, 8, 15, 29, and 36 as a 10 minute infusion. IV hydration will be given prior to the infusion. Focal RT will be administered once daily, 5 days/week, for 30 doses over 6 weeks to a total dose of 60 Gy, starting on Day 1. TMZ will be administered once daily, 7 days/week, for 6 weeks, starting on Day 1, at a dose of 75 mg/m^2. Patients who complete Concomitant Treatment may continue on to Adjuvant Treatment.
# All patients will receive IV MRZ infusion on Days 1, 8, and 15 as a 10 minute infusion, in 28-day cycles. IV hydration will be given prior to the infusion. TMZ will be administered daily for 5 consecutive days, starting on Day 1 of Cycle 1 (C1D1), at a dose of 150 mg/m^2. If tolerated in Cycle 1, the TMZ dose will be increased on Day 1 of Cycle 2 (C2D1) to a dose of 200 mg/m^2.
# [3] = 7 CNS-MM patients, listed as Marizomib
# [4] = N = 20, related to the labelled drug
# [5] = N = 20, related to the labelled drug (MRZ+TMZ = related to both)
# [6] = patient 301-A202, action taken None
# [7] = patient 301-C202, action taken None
# [8] = MRZ 0.7 mg/m^2, C1D8 (17 May 2016)
# [9] = MRZ 0.8 mg/m^2, C1D8 (17 May 2016)
# [10] = MRZ 0.8 mg/m^2, C1D8 (Table 43)
smiles,measurement,setting,value
C[C@@]12OC(=O)[C@]1([C@@H](O)[C@@H]1C=CCCC1)NC(=O)[C@@H]2CCCl [marizomib],complete responses,[1]; 7 CNS-MM patients,two
same,partial responses,[1]; 7 CNS-MM patients,3
same,patients with at least a partial response (overall response rate),[1]; 7 CNS-MM patients,five of seven
same,patients with survival greater than four months,[1]; 7 CNS-MM patients,four of seven
same,patients with at least a partial response (overall response rate),"[1]; 7 CNS-MM patients, listed as MRZ",Five of 7
same,complete responses,[1]; [3],2
same,patients with at least a partial response (overall response rate),[1]; [3],5/7
same,Neurological Assessment,[1]; Case 1,Reduction of CSF plasma cells
same,reduction of CSF plasmacytosis,[1]; Case 1,99%
same,Reduction of CSF plasma cells,"[1]; Case 1, C2D1",(90% C2D1)
same,Neurological Assessment,[1]; Case 2,sustained complete resolution of CSF plasmacytosis; also recorded: No CSF plasma cells detected; also recorded: Stable remission by MRI
same,Response,"[1]; Case 2, ongoing C13",CR by serology; stable remission
same,Neurological Assessment,[1]; Case 3,undetectable CSF plasmacytosis since C3D1; also recorded: No evidence of FDG-avid lesions
same,IMWG Assessment Systemic Disease,[1]; Case 3: MRZ 0.8 mg/m^2 + POM 4 mg + DEX 20 mg,ongoing complete response
same,Response,"[1]; Case 3, ongoing C8",CR - no evidence of active disease:
same,Neurological Assessment,[1]; Case 4,Transient improvement through
same,Response,"[1]; Case 4, discontinued on C3",Best response PR with PD after C3
same,Response,"[1]; Case 5, discontinued C1",Pleural effusion following C1D1
same,Neurological Assessment,[1]; Case 6,resolution of CNS disease; also recorded: Complete resolution of central
same,reduction in systemic paraprotein,[1]; Case 6,77%
same,Paraprotein after decrease,"[1]; Case 6, from 18 g/L",18 to 4 g/L
same,IMWG Assessment Systemic Disease,[1]; Case 7: MRZ 0.7 mg/m^2 + LEN 25 mg + DEX 10 mg,PD (increase in tumor of ≥25% from lowest response value)
same,IMWG Assessment Systemic Disease,"[1]; Case 7: MRZ 0.7 mg/m^2 + LEN 25 mg + DEX 10 mg, listed as MRZ",progressive disease
same,"Discontinued, reason Adverse Event",[2]; N = 20,1 (5.0%)
same,"Dose reduction, reason Adverse Event",[2]; N = 20,1 (5.0%)
same,Number of Patients with drug Discontinued,[2]; N = 20,1 (5.0%)
same,Number of Patients with ≥1 Dose Reduction,[2]; N = 20,1 (5.0%)
same,patients with MRZ-related serious adverse events,[2]; N = 20,One
same,patients with fatigue Grade ≥3,[2]; N = 20,Three
same,"Abdominal pain, Grade ≥3 TEAE, drug related",[2]; [4],0 (0.0%)
same,"Confusional state, treatment-related TEAE, number of patients",[2]; [4],3
same,"Confusional state, treatment-related TEAE, percent of patients",[2]; [4],(15.0%)
same,"Constipation, treatment-related TEAE, number of patients",[2]; [4],1
same,"Constipation, treatment-related TEAE, percent of patients",[2]; [4],(5.0%)
same,"Decreased appetite, treatment-related TEAE, number of patients",[2]; [4],4
same,"Decreased appetite, treatment-related TEAE, percent of patients",[2]; [4],(20.0%)
same,"Dehydration, Grade ≥3 TEAE, drug related",[2]; [4],1 (5.0%)
same,"Diarrhoea, treatment-related TEAE, number of patients",[2]; [4],2
same,"Diarrhoea, treatment-related TEAE, percent of patients",[2]; [4],(10.0%)
same,"Dizziness, treatment-related TEAE, number of patients",[2]; [4],4
same,"Dizziness, treatment-related TEAE, percent of patients",[2]; [4],(20.0%)
same,"Hallucination, Grade ≥3 TEAE, drug related",[2]; [4],1 (5.0%)
same,"Hallucination, treatment-related TEAE, number of patients",[2]; [4],5
same,"Hallucination, treatment-related TEAE, percent of patients",[2]; [4],(25.0%)
same,"Headache, Grade ≥3 TEAE, drug related",[2]; [4],0 (0.0%)
same,"Headache, treatment-related TEAE, number of patients",[2]; [4],3
same,"Headache, treatment-related TEAE, percent of patients",[2]; [4],(15.0%)
same,"Insomnia, Grade ≥3 TEAE, drug related",[2]; [4],0 (0.0%)
same,"Muscular weakness, treatment-related TEAE, number of patients",[2]; [4],3
same,"Muscular weakness, treatment-related TEAE, percent of patients",[2]; [4],(15.0%)
same,"Musculoskeletal pain, Grade ≥3 TEAE, drug related",[2]; [4],0 (0.0%)
same,"Nausea, treatment-related TEAE, number of patients",[2]; [4],9
same,"Nausea, treatment-related TEAE, percent of patients",[2]; [4],(45.0%)
same,"Ovarian cyst, Grade ≥3 TEAE, drug related",[2]; [4],0 (0.0%)
same,"Pelvic infection, Grade ≥3 TEAE, drug related",[2]; [4],0 (0.0%)
same,"Platelet count decreased, Grade ≥3 TEAE, drug related",[2]; [4],1 (5.0%)
same,"Platelet count decreased, treatment-related TEAE, number of patients",[2]; [4],2
same,"Platelet count decreased, treatment-related TEAE, percent of patients",[2]; [4],(10.0%)
same,"Rash maculo-papular, treatment-related TEAE, number of patients",[2]; [4],1
same,"Rash maculo-papular, treatment-related TEAE, percent of patients",[2]; [4],(5.0%)
same,"Vomiting, Grade ≥3 TEAE, drug related",[2]; [4],1 (5.0%)
same,"Vomiting, treatment-related TEAE, number of patients",[2]; [4],5
same,"Vomiting, treatment-related TEAE, percent of patients",[2]; [4],(25.0%)
same,"Fatigue, Grade ≥3 TEAE, drug related",[2]; [5],3 (15.0%)
same,"Fatigue, treatment-related TEAE, number of patients",[2]; [5],13
same,"Fatigue, treatment-related TEAE, percent of patients",[2]; [5],(65.0%)
same,"Grade 2 SAEs (nausea, confusional state), MRZ-related","[2]; interim analysis, 20 patients",two
same,"Grade 3 SAEs (fatigue, hallucination, vomiting), MRZ-related","[2]; interim analysis, 20 patients",three
same,tolerability,[2]; newly diagnosed G4 MG,well tolerated
same,"SAE Nephrolithiasis, relationship to drug","[2]; patient 104-C302, action taken None",Not Suspected/
same,"SAE Confusional state, relationship to drug",[2]; [6],Suspected/
same,"SAE Dehydration, relationship to drug",[2]; [6],Not Suspected/
same,"SAE Fatigue, relationship to drug",[2]; [6],Suspected/
same,"SAE Hallucination, relationship to drug",[2]; [6],Suspected/
same,"SAE Nausea, relationship to drug",[2]; [6],Suspected/
same,"SAE Vomiting, relationship to drug",[2]; [6],Suspected/
same,"SAE Ovarian cyst, relationship to drug","[2]; patient 301-C202, action taken Dose Delayed",Not Suspected/
same,"SAE Convulsion, relationship to drug",[2]; [7],Not Suspected/
same,"SAE Pelvic infection, relationship to drug",[2]; [7],Not Suspected/
same,CL,IV infusion,high
same,T½,IV infusion,short
same,Vd,IV infusion,large
same,CLobs,[8],162 (1) mL/min/m^2
same,Cmax,[8],65 ± 31 (3) ng/mL
same,Vss obs,[8],7377 (1) mL/m^2
same,CLobs,"MRZ 0.7 mg/m^2, C1D8 (Table 43)",272 ± 166 (3) L/hr
same,CLobs,[9],3822 ± 1798 (2) mL/min/m^2
same,Vss obs,[9],12379 ± 8698 (2) mL/m^2
same,CLobs,[10],304 ± 85.0 (3) L/hr
same,Vd,[10],55.0 ± 19.7 (3) L
same,Vss obs,"MRZ […]^2, C1D8 (17 May 2016)",12971 ± 7600 (3) mL/m^2
same,CLobs,"marizomib 0.7 mg/m^2 IV, C1D8, blood",272 ± 166 (3) L/hr
same,CLobs,"marizomib 0.8 mg/m^2 IV, C1D8, blood",304 ± 85.0 (3) L/hr
same,MRZ pharmacokinetic parameters: effect of co-administration,with BEV,not affected by co-administration
